Assay results from the NIST ThermoML archive (doi:10.1016/j.fluid.2005.05.023).

Test: xn = mol fraction of the nth substance listed
Details: Liquid, Vibrating tube method

Cc1ccccc1 [toluene] + CCO
mass density [kg/m3]
Details	100 kPa	5000 kPa	10000 kPa	15000 kPa	20000 kPa	25000 kPa	30000 kPa	35000 kPa	40000 kPa	45000 kPa
283.15 K, x2 = 0	876.1	879.5	882.9	886.1	889.3	892.4	895.3	898.2	901	903.7
283.15 K, x2 = 0.125	870.4	873.9	877.4	880.7	883.8	886.9	889.9	892.8	895.6	898.4
283.15 K, x2 = 0.25	864.3	867.9	871.3	874.6	877.9	881	884	886.9	889.7	892.5
283.15 K, x2 = 0.375	857.5	861.1	864.6	867.9	871.2	874.3	877.3	880.3	883.1	885.9
283.15 K, x2 = 0.5	849.5	853.2	856.7	860.1	863.4	866.5	869.6	872.5	875.4	878.2
283.15 K, x2 = 0.625	840.2	843.9	847.5	850.9	854.2	857.4	860.5	863.5	866.4	869.2
283.15 K, x2 = 0.75	829.2	832.9	836.5	840	843.4	846.6	849.7	852.8	855.7	858.6
283.15 K, x2 = 0.875	815.4	819.2	823	826.5	829.9	833.2	836.4	839.5	842.5	845.4
293.15 K, x2 = 0	866.8	870.5	874.1	877.5	880.8	884	887.1	890.1	893	895.9
293.15 K, x2 = 0.125	861	864.7	868.3	871.8	875.1	878.4	881.5	884.6	887.5	890.4
293.15 K, x2 = 0.25	854.9	858.6	862.3	865.8	869.2	872.5	875.6	878.7	881.7	884.5
293.15 K, x2 = 0.375	848.1	851.8	855.5	859.1	862.5	865.8	869	872.1	875.1	878
293.15 K, x2 = 0.5	840.3	844	847.8	851.4	854.8	858.1	861.4	864.5	867.5	870.4
293.15 K, x2 = 0.625	831.1	834.9	838.7	842.3	845.8	849.2	852.4	855.5	858.6	861.5
293.15 K, x2 = 0.75	820.2	824.1	827.9	831.6	835.1	838.5	841.8	845	848	851
293.15 K, x2 = 0.875	806.6	810.6	814.5	818.3	821.9	825.4	828.7	831.9	835	838
303.15 K, x2 = 0	857.5	861.4	865.2	868.8	872.3	875.7	879	882.1	885.2	888.1
303.15 K, x2 = 0.125	851.4	855.4	859.2	862.9	866.4	869.9	873.2	876.4	879.4	882.5
303.15 K, x2 = 0.25	845.3	849.3	853.2	856.9	860.5	863.9	867.3	870.4	873.6	876.6
303.15 K, x2 = 0.375	838.5	842.6	846.5	850.3	853.9	857.3	860.7	863.9	867.1	870.1
303.15 K, x2 = 0.5	830.8	834.8	838.8	842.6	846.2	849.7	853.1	856.4	859.5	862.6
303.15 K, x2 = 0.625	821.7	825.8	829.8	833.7	837.3	840.9	844.3	847.6	850.7	853.8
303.15 K, x2 = 0.75	810.9	815.1	819.2	823.1	826.8	830.4	833.8	837.1	840.3	843.4
303.15 K, x2 = 0.875	797.6	801.9	806.1	810	813.8	817.4	820.9	824.3	827.5	830.6
313.15 K, x2 = 0	848.1	852.2	856.2	860	863.7	867.3	870.7	874	877.2	880.3
313.15 K, x2 = 0.125	841.8	845.9	850	853.9	857.7	861.3	864.7	868.1	871.3	874.5
313.15 K, x2 = 0.25	835.6	839.8	844	847.9	851.7	855.3	858.8	862.2	865.4	868.6
313.15 K, x2 = 0.375	828.9	833.2	837.3	841.3	845.1	848.8	852.3	855.7	859	862.2
313.15 K, x2 = 0.5	821.2	825.5	829.7	833.7	837.5	841.2	844.8	848.2	851.5	854.7
313.15 K, x2 = 0.625	812.2	816.5	820.8	824.8	828.7	832.5	836	839.4	842.8	–
313.15 K, x2 = 0.75	801.6	806	810.3	814.4	818.3	822.1	825.7	829.2	832.5	–
313.15 K, x2 = 0.875	788.6	793.1	797.5	801.6	805.6	809.4	813.1	816.6	819.9	–
